As usually defined, the AUC(0-inf) is total exposure, with the tail of the curve extrapolated. Low readings indicate less exposure, high ones more exposure. A word on the half-life: it is the time needed for the level to fall by half in the phase considered.

Experimental findings from US20160206604A1, “FORMULATIONS COMPRISING WETTING AGENTS AND COMPOUNDS FOR THE MODULATION OF HEMOGLOBIN (S)” (GLOBAL BLOOD THERAPEUTICS, INC., priority 2013, published 2016) are described below.

Data set [1] is described as follows: Pharmacokinetics of compound 12 following oral administration of compound 53 formulation, rats. Conditions: following oral administration 10 mg/kg.
Data set [2] addresses T1, HbS (Homo sapiens, UniProt P68871+P69905, E7V). Put plainly: Polymerization assay. Format: biochemical. On the set-up: HbS is purified by the CRO VIRUSYS, from blood obtained from homozygous sickle cell patients; tissue VIRUSYS (CRO that did the purification); host or cells: blood of homozygous sickle cell patients. The conditions noted are these: 75 μM compound; for Polymerization (75 μM)/(% DT): 50 μM purified HbS, percent delay time. The method, then:
Polymerization assays are carried out in vitro using purified HBS exchanged into 1.8 M potassium phosphate buffer at pH 7.4. Using a slightly modified protocol (Antonini and Brunori, 1971), HbS is purified by the CRO VIRUSYS, from blood obtained from homozygous sickle cell patients through the Hemoglobinopathy Center at Children's Hospital Oakland Research Institute (CHORI) with Institutional Review Board approval. Compounds are prepared in 100% DMSO and a desired amount is added to 50 μM of purified HbS at a final DMSO concentration of 0.3%. Final potassium phosphate concentration is adjusted to 1.8 M using a combination of 2.5 M potassium phosphate stock solution and water at pH 7.4. The reaction mixture is incubated for an hour at 37° C. and then transferred into a 24-well plate for deoxygenation in a glove box containing 99.5% nitrogen and 0.5% oxygen. The 24-well plate is not covered and incubated at 4° C. on a plate cooler inside the glove box for one and a half hours. Fifty μL of the reaction mixture is transferred into a 96-well plate and the absorbance at 700 nm is measured every minute for one hour at 37° C. in a plate reader located inside the glove box. A plot of the absorbance against time is fitted using a Boltzman sigmoidal fit and the delay time (from zero to time at half Vmax) is measured. To compare and rank compounds, delay times are expressed as percent delay (% DT), which is defined as the difference in delay times for HbS/compound and HbS alone multiplied by 100 and divided by the delay time for HbS alone.
Results: Compounds listed below have been tested in the polymerization assay. Activity ranges are defined by the number of dagger (†) symbols indicated. † denotes activity ≧40% but ≦80%; †† denotes activity >80% but ≦120%; ††† denotes activity >120% but ≦140%; †††† denotes activity >[…].

In data set [3] the target is T2, HbS/A (Homo sapiens, UniProt P68871+P69905, E7V).
T2 construct: A mixture of HbS/A was purified from blood obtained from homozygous sickle cell patients; from tissue; host or cells: blood of homozygous sickle cell patients; hemoglobin purified from it
Put plainly: R/T assay (relaxed-to-tense transition assay). The conditions noted are these: for R-T (9 μM)/(delta R), class / R-T (9 μM)/(delta R): 9 μM compound; for R-T (9 μM)/(delta R) / R-T (10 μM)/(delta R): 3 μM HbS/A; for R-T (10 μM)/(delta R), class / R-T (10 μM)/(delta R): 10 μM compound. It counts as biochemical. The method, then: This ability can be expressed as a “delta R” value (i.e., the change in the time-period of the R state after hemoglobin is treated with a compound, as compared to the period without treatment with the compound). Delta R is the % R to remaining after the compounds treatment compared with no treatment (e.g. if R % without treatment is 8% while with treatment with a target compound is 48% R at 30 μM, then % R is 40% for that compound.
A mixture of HbS/A was purified from blood obtained from homozygous sickle cell patients though the Hemoglobinopathy Center at Children's Hospital Oakland Research Institute (CHORI) with Institutional Review Board approval. HbS/A (at a final concentration of 3 μM) was incubated for 1 hr at 37° C. in presence or absence of compounds in […] potassium phosphate buffer, pH=7.4 and 30 μM 2, 3 diphosphoglycerate (DPG) in 96 well plates in a final volume of 160 μl. Compounds were added at different concentrations (3 μM to 100 μM final concentrations). Plates were covered with a Mylar film. After incubation was completed the Mylar cover was removed and the plates were placed in a Spectrostar Nano plate reader previously heated at 37° C. Five minutes later, N2 (flow rate=20 L/min) was flowed through the spectrophotometer. Spectroscopic measurements (300 nm to 700 nm) were taken every 5 min for 2 hours. Data analysis was performed by using linear regression from the data retrieved for all wavelengths.
Results: Table 3 below lists the delta R values where “+” indicates a delta R of between 0 and 30, “++” indicates a delta R of between 30 and 50, and “+++” indicates a delta R of 50 or greater.

Data set [4] deals with T1, HbS. Put plainly: Reverse Hemox assay (oxygen equilibrium curves of whole blood). On the set-up: Oxygen Equilibrium Curves (OEC) of whole blood before and after treatment; from tissue; host or cells: whole blood (red blood cells) of homozygous sickle cell patients. The conditions noted are these: 1 mM compound, sickle cell whole blood; for Reverse Hemox (1 mM)/(delta p50%): hematocrit 20%, 1 hour 37° C. It counts as cell-based. The method, then: Oxygen Equilibrium Curves (OEC) of whole blood before and after treatment with different concentrations of compounds 12, 22 and 23 were performed as follows using a HEMOX analyzer (TCS Scientific, New Hope, Pa.). Blood samples from homozygous sickle cell patients were obtained though the Hemoglobinopathy Center at Children's Hospital Oakland Research Institute (CHORI) with Institutional Review Board approval. The hematocrit was adjusted to 20% using autologous plasma and the blood samples were incubated for 1 hour at 37° C. in absence or presence of compounds. 100 μl of these samples were added to 5 mL of Hemox buffer (30 mM TES, 130 mM NaCl, 5 mM KCl, pH=7.4) at 37° C. and then transferred to the Hemox sample chamber. The samples were saturated with oxygen by flushing with compressed air for 10 minutes. The samples were then flushed with pure nitrogen and the respective absorbances of oxy- and deoxy-Hb were recorded as a function of the solution pO2. The oxygen equilibrium data were then fitted to the Hill Model to obtain values for p50. The deoxygenation curves for both whole blood alone (control) and whole blood in the presence of the compound were collected with the TCS software.
Results: Table 3 below lists the delta p50% values where “+” indicates a delta p50% of between 0 and 29, “++” indicates a delta p50% of between 30 and 50, and “+++” indicates a delta p50% of 50 or greater.

A short description of data set [5]: Pharmacokinetic (PK) properties in rats, oral or intravenous dosing. Format: in vivo, Rats (Sprague-Dawley). Conditions: for blood plasma ratio: male, Sprague-Dawley, rat, whole blood and plasma, po, 10 mg/kg, dosed orally. The protocol:
This experiment was established and used in order to assess the pharmacokinetic (PK) properties of the compounds.
Sample collection and data analysis: Rats (Sprague-Dawley, male, 8-12 weeks old) were dosed with one of three compounds corresponding to compound 12, compound 22 or compound 23. The rats received oral (10 mg/kg) or intravenous (1 mg/kg) doses of the compound. Rats were fasted overnight before the experiments and provided with food after the 2 hour sampling time point.
(§1) Blood samples were collected at different time points. Blood was anti-coagulated by 3.2% TSC (trisodium citrate) and a portion was separated into plasma fraction by centrifugation and removal of blood cells. Plasma and lysed blood samples were analyzed for drug concentration using LC-MS/MS. PK parameters were calculated by non compartmental analysis of the concentration-time profiles using WinNonLin software (Pharsight, Mountain View, Calif.). Apparent elimination half-life (t1/2) values were calculated as ln(2)/k. Area under the concentration-time curve (AUC) values were estimated using the linear trapezoidal method. AUClast values were calculated from the dosing time to the last measurable concentration. AUCinf values were calculated as the sum of the corresponding AUClast and the ratio of the last detectable concentration divided by k. Plasma clearance (Cl) is calculated from Dose/AUCinf. Volume of distribution at steady state (Vss) is calculated from Mean Residence Timeinf×Clss. Maximum concentration (Cmax) and time to Cmax (Tmax) was recorded as observed. The blood/plasma partitioning ratio was calculated at each experimental time point.

Data set [6] deals with hemoglobin (Homo sapiens, UniProt P68871+P69905). Put plainly: In vitro system measuring binding to hemoglobin and human serum albumin. Conditions: both proteins present in their respective physiologic ratio. The method, then: However, when the red blood cell compartment is considered, compound 12 unexpectedly partitions into blood to a far greater extent than compound 22 or compound 23. […] When the red blood cell/plasma ratio was measured at the peak concentration, compound 12 partitioned at a ratio of 70 to 1 into the erythrocytes attesting to its preferential partition into the compartment which contains the drug target hemoglobin. Supportive data was reported in an in vitro system measuring binding of compound 12 to hemoglobin and human serum albumin.

Data set [7] is described as follows: Pharmacokinetics of compound 12 suspension formulation (methylcellulose/sodium dodecyl sulfate), oral, rats. It counts as in vivo, Sprague-Dawley rats. The protocol: as §1
A suspension of Compound 12 was prepared by triturating 250 mg of compound 12 in a mortar with 2 mL of 0.5% methylcellulose in water and 200 μL of 0.5% sodium dodecyl sulfate. After approximately 5 minutes, the suspension was homogeneous. The volume of the mixture was adjusted to 12.5 mL with 0.5% methylcellulose to obtain a final concentration of 20 mg/mL. To prepare a 10 mg/mL suspension of compound 12, the 20 mg/mL suspension was diluted two-fold with 0.5% methylcellulose.
Pharmacokinetics of compound 12 following an oral administration of compound 12 suspension at 50 mg/kg or 100 mg/kg were studied in male Sprague-Dawley rats (n=3/group) using the method described in Example 1. Maximum blood concentration of compound 12 was achieved within 6 hours. The maximum concentrations at 50 mg/kg and 100 mg/kg compound 12 were 281 μg/mL (903 μM) and 327 μg/mL (1050 μM), respectively.

Where [8] appears, read: overall exposure, read-out: Blood/plasma (Ratio of exposure AUCINF).

Values joined by “and” are separate entries in the source; they are usually repeats but may differ in a detail not shown here. Equal values may be shown once. Read-outs that look alike come from different tables or passages of the source.

Regarding `CC(C)n1nccc1-c1ncccc1COc1cccc(OP(=O)(O)O)c1C=O` [Compound 53, 2-formyl-3-((2-(1-isopropyl-1H-pyrazol-5-yl)pyridin-3-yl)methoxy)phenyl dihydrogen phosphate], the “in vivo conversion of prodrug” value in data set [1] was “converted to compound 12”.

`COc1cc(C=O)c(OCc2cccnc2-c2ccnn2CC(F)F)cn1` [Compound 22, 5-[[2-[2-(2,2-difluoroethyl)pyrazol-3-yl]pyridin-3-yl]methoxy]-2-methoxypyridine-4-carbaldehyde]: in data set [2], the “Polymerization (75 μM)/(% DT), class” value was “†† (†† denotes activity >80% but ≦120%)” and the “Polymerization (75 μM)/(% DT)” value stood at 90.22%. Further, in data set [3], the “R-T (9 μM)/(delta R), class” value is “++ (“++” indicates a delta R of between 30 and 50)”; the “R-T (9 μM)/(delta R)” value was determined as 31.02; the “R-T (10 μM)/(delta R), class” value is “++ (“++” indicates a delta R of between 30 and 50)”; the “R-T (10 μM)/(delta R)” value was determined as 36.25. In addition, in data set [4], the “Reverse Hemox (1 mM)/(delta p50%), class” value was “+++ (“+++” indicates a delta p50% of 50 or greater)” and the “Reverse Hemox (1 mM)/(delta p50%)” value amounted to 68.69%. In addition, the blood plasma ratio in data set [5] (setting [8]) worked out at 5.

Take `CC(C)n1nccc1-c1ncccc1COc1cccc(O)c1C=O` [Compound 12, 2-hydroxy-6-[[2-(2-propan-2-ylpyrazol-3-yl)pyridin-3-yl]methoxy]benzaldehyde]: the “binding to hemoglobin versus human serum albumin” value in data set [6] is given as “preferentially binding to hemoglobin”. Further, in data set [2], the “Polymerization (75 μM)/(% DT), class” value is “†† (†† denotes activity >80% but ≦120%)” and the “Polymerization (75 μM)/(% DT)” value is on record as 108.56%. This molecule displayed an AUC(0-inf) in data set [7] (male, Sprague-Dawley, rat, blood, oral suspension 50 mg/kg) of 7340 µg·h/mL. The half-life in data set [7] (male, Sprague-Dawley, rat, blood, oral suspension 50 mg/kg or 100 mg/kg, read-out: mean terminal half-life) lay within 16 to 19 h. Further, the AUC(0-inf) in data set [7] (male, Sprague-Dawley, rat, blood, oral suspension 100 mg/kg) was found to be 9460 µg·h/mL. Moreover, in data set [7] (oral suspension 50 mg/kg or 100 mg/kg), the “time to maximum blood concentration” value is ≤ 6 h. Moreover, the maximum concentration in data set [7] (oral suspension 50 mg/kg, blood) is 281 μg/mL and 903 μM. Moreover, in data set [7] (oral suspension 100 mg/kg, blood), the maximum concentration was 327 μg/mL and 1050 μM. Besides, in data set [3], the “R-T (9 μM)/(delta R), class” value is “+++ (“+++” indicates a delta R of 50 or greater)”; the “R-T (9 μM)/(delta R)” value came out at 65.45; the “R-T (10 μM)/(delta R), class” value is reported as “+++ (“+++” indicates a delta R of 50 or greater)”; the “R-T (10 μM)/(delta R)” value is recorded as 62.75. For the same molecule, in data set [4], the “Reverse Hemox (1 mM)/(delta p50%), class” value was “+++ (“+++” indicates a delta p50% of 50 or greater)” and the “Reverse Hemox (1 mM)/(delta p50%)” value is listed as 79.83%. Moreover, the “red blood cell/plasma ratio at the peak concentration” value in data set [5] (ratio to 1 into erythrocytes) worked out at 70.

For the molecule `COc1cc(C=O)c(OCc2cccnc2-c2ccccc2C)cn1` [Compound 23, 2-methoxy-5-[[2-(2-methylphenyl)pyridin-3-yl]methoxy]pyridine-4-carbaldehyde], in data set [2], the “Polymerization (75 μM)/(% DT), class” value was “†† (†† denotes activity >80% but ≦120%)” and the “Polymerization (75 μM)/(% DT)” value was determined as 98.19%. Also, in data set [3], the “R-T (9 μM)/(delta R), class” value is “++ (“++” indicates a delta R of between 30 and 50)”; the “R-T (9 μM)/(delta R)” value is listed as 37.15; the “R-T (10 μM)/(delta R), class” value is “+++ (“+++” indicates a delta R of 50 or greater)”; the “R-T (10 μM)/(delta R)” value worked out at 51.55. Moreover, in data set [4], the “Reverse Hemox (1 mM)/(delta p50%), class” value is reported as “+++ (“+++” indicates a delta p50% of 50 or greater)” and the “Reverse Hemox (1 mM)/(delta p50%)” value is 72.45%. Also, the blood plasma ratio in data set [5] (at Cmax, read-out: Blood/plasma (Ratio of peak concentration)) stood at 3. Further, in data set [5] (setting [8]), the blood plasma ratio came out at 1.
